Where only a bound is given, the exact number is not on record here.

The assay deals with p-IKKa levels in L363 (NIK translocated multiple myeloma) cells. Briefly: Assay 2: Effect of compounds on p-IKKa levels in L363 (NIK translocated multiple myeloma) cells. Format: cell-based. As to conditions: Homo sapiens, L-363, 6 h, read-out: Assay 2 IC50 (nM), p-IKKa (Ser 176/180) in BAFF stimulated L363 cells with MG132, 6 h; average if tested more than once. An outline of the steps: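 Read-out is p-IKKa Ser176/180 by AlphaLISA SureFire in lysates. Cells were BAFF-primed (250 ng/ml) overnight or left unstimulated, then exposed 6 h at 37 °C to compound with MG132 (10 μM), 0.3% DMSO. IC50 from sigmoidal curve fit, normalized between stimulated and unstimulated controls.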
`CN1CC[C@@](O)(c2cc(-c3cccc(-c4ccnc(NCc5ccn(C)n5)n4)n3)no2)C1=O` [Example 367, (R)-3-Hydroxy-1-methyl-3-(3-(6-(2-(((1-methyl-1H-pyrazol-3-yl)methyl)amino)pyrimidin-4-yl)pyridin-2-yl)isoxazol-5-yl)pyrrolidin-2-one]: the IC50 was in the range of 50 to 500 nM.

For `CN1CC[C@@](O)(c2cc(-c3cccc(-c4ccnc(NCc5cnn(C)c5)n4)n3)no2)C1=O` [Example 368, (R)-3-Hydroxy-1-methyl-3-(3-(6-(2-(((1-methyl-1H-pyrazol-4-yl)methyl)amino)pyrimidin-4-yl)pyridin-2-yl)isoxazol-5-yl)pyrrolidin-2-one], the IC50 was in the range of 50 to 500 nM. Turning to `C[C@@H](Nc1nccc(-c2cccc(-c3cc([C@]4(O)CCN(C)C4=O)on3)n2)n1)c1ncc[nH]1` [Example 369, (R)-3-(3-(6-(2-(((R)-1-(1H-Imidazol-2-yl)ethyl)amino)pyrimidin-4-yl)pyridin-2-yl)isoxazol-5-yl)-3-hydroxy-1-methylpyrrolidin-2-one], the IC50 was > 500 nM. For the compound `C[C@H](Nc1nccc(-c2cccc(-c3cc([C@]4(O)CCN(C)C4=O)on3)n2)n1)c1ncc[nH]1` [Example 370, (R)-3-(3-(6-(2-(((S)-1-(1H-Imidazol-2-yl)ethyl)amino)pyrimidin-4-yl)pyridin-2-yl)isoxazol-5-yl)-3-hydroxy-1-methylpyrrolidin-2-one], the IC50 is > 500 nM. For `CC(Nc1nccc(-c2cccc(-c3cc([C@]4(O)CCN(C)C4=O)on3)n2)n1)c1ncco1` (stereo partly drawn) [Example 371, (3R)-3-Hydroxy-1-methyl-3-(3-(6-(2-((1-(oxazol-2-yl)ethyl)amino)pyrimidin-4-yl)pyridin-2-yl)isoxazol-5-yl)pyrrolidin-2-one] the value was 50 to 500 nM; for `CC(Nc1nccc(-c2cccc(-c3cc([C@]4(O)CCN(C)C4=O)on3)n2)n1)c1cnco1` (stereo partly drawn) [Example 372, (3R)-3-Hydroxy-1-methyl-3-(3-(6-(2-((1-(oxazol-5-yl)ethyl)amino)pyrimidin-4-yl)pyridin-2-yl)isoxazol-5-yl)pyrrolidin-2-one], 50 to 500 nM.

For the compound `CC(Nc1nccc(-c2cccc(-c3cc([C@]4(O)CCN(C)C4=O)on3)n2)n1)c1cocn1` (stereo partly drawn) [Example 373, (3R)-3-Hydroxy-1-methyl-3-(3-(6-(2-((1-(oxazol-4-yl)ethyl)amino)pyrimidin-4-yl)pyridin-2-yl)isoxazol-5-yl)pyrrolidin-2-one], the IC50 lay in the range of 50 to 500 nM. As to `C[C@H](Nc1nccc(-c2cccc(-c3cc([C@]4(O)CCN(C)C4=O)on3)n2)n1)c1cccnc1` [Example 374, (R)-3-Hydroxy-1-methyl-3-(3-(6-(2-(((S)-1-(pyridin-3-yl)ethyl)amino)pyrimidin-4-yl)pyridin-2-yl)isoxazol-5-yl)pyrrolidin-2-one], the IC50 lay within 50 to 500 nM.

As for `C[C@@H](Nc1nccc(-c2cccc(-c3cc([C@]4(O)CCN(C)C4=O)on3)n2)n1)c1cccnc1` [Example 375, (R)-3-Hydroxy-1-methyl-3-(3-(6-(2-(((R)-1-(pyridin-3-yl)ethyl)amino)pyrimidin-4-yl)pyridin-2-yl)isoxazol-5-yl)pyrrolidin-2-one], the IC50 lay in the range of 50 to 500 nM. For `C[C@H](Nc1nccc(-c2cccc(-c3cc([C@]4(O)CCN(C)C4=O)on3)n2)n1)c1ccccn1` [Example 376, (R)-3-Hydroxy-1-methyl-3-(3-(6-(2-(((S)-1-(pyridin-2-yl)ethyl)amino)pyrimidin-4-yl)pyridin-2-yl)isoxazol-5-yl)pyrrolidin-2-one] the value was 50 to 500 nM; for `CC(Nc1nccc(-c2cccc(-c3cc([C@]4(O)CCN(C)C4=O)on3)n2)n1)c1ncccn1` (stereo partly drawn) [Example 377, (3R)-3-Hydroxy-1-methyl-3-(3-(6-(2-((1-(pyrimidin-2-yl)ethyl)amino)pyrimidin-4-yl)pyridin-2-yl)isoxazol-5-yl)pyrrolidin-2-one], > 500 nM. Next, `CC(Nc1nccc(-c2cccc(-c3cc([C@]4(O)CCN(C)C4=O)on3)n2)n1)c1cn(C)cn1` (stereo partly drawn) [Example 378, (3R)-3-Hydroxy-1-methyl-3-(3-(6-(2-((1-(1-methyl-1H-imidazol-4-yl)ethyl)amino)pyrimidin-4-yl)pyridin-2-yl)isoxazol-5-yl)pyrrolidin-2-one]: 50 to 500 nM; `Cc1cc(C(C)Nc2nccc(-c3cccc(-c4cc([C@]5(O)CCN(C)C5=O)on4)n3)n2)n[nH]1` (stereo partly drawn) [Example 379, (3R)-3-Hydroxy-1-methyl-3-(3-(6-(2-((1-(5-methyl-1H-pyrazol-3-yl)ethyl)amino)pyrimidin-4-yl)pyridin-2-yl)isoxazol-5-yl)pyrrolidin-2-one]: 50 to 500 nM.

As for `Cc1cc([C@@H](C)Nc2nccc(-c3cccc(-c4cc([C@]5(O)CCN(C)C5=O)on4)n3)n2)no1` [Example 380, (R)-3-Hydroxy-1-methyl-3-(3-(6-(2-(((R)-1-(5-methylisoxazol-3-yl)ethyl)amino)pyrimidin-4-yl)pyridin-2-yl)isoxazol-5-yl)pyrrolidin-2-one], the IC50 lay in the range of 50 to 500 nM. On to `Cc1cnc(C(C)Nc2nccc(-c3cccc(-c4cc([C@]5(O)CCN(C)C5=O)on4)n3)n2)o1` (stereo partly drawn) [Example 381, (3R)-3-Hydroxy-1-methyl-3-(3-(6-(2-((1-(5-methyloxazol-2-yl)ethyl)amino)pyrimidin-4-yl)pyridin-2-yl)isoxazol-5-yl)pyrrolidin-2-one], for which the IC50 was 50 to 500 nM. Consider `Cc1cc(C(C)Nc2nccc(-c3cccc(-c4cc([C@]5(O)CCN(C)C5=O)on4)n3)n2)on1` (stereo partly drawn) [Example 382, (3R)-3-Hydroxy-1-methyl-3-(3-(6-(2-((1-(3-methylisoxazol-5-yl)ethyl)amino)pyrimidin-4-yl)pyridin-2-yl)isoxazol-5-yl)pyrrolidin-2-one], for which the IC50 was in the range of 50 to 500 nM. `C[C@@H](Nc1nccc(-c2cccc(-c3cc([C@]4(O)CCN(C)C4=O)on3)n2)n1)c1cnnn1C` [Example 383, (R)-3-Hydroxy-1-methyl-3-(3-(6-(2-(((R)-1-(1-methyl-1H-1,2,3-triazol-5-yl)ethyl)amino)pyrimidin-4-yl)pyridin-2-yl)isoxazol-5-yl)pyrrolidin-2-one]: the IC50 lay in the range of 50 to 500 nM. Next, `C[C@H](Nc1nccc(-c2cccc(-c3cc([C@]4(O)CCN(C)C4=O)on3)n2)n1)c1cnnn1C` [Example 384, (R)-3-Hydroxy-1-methyl-3-(3-(6-(2-(((S)-1-(1-methyl-1H-1,2,3-triazol-5-yl)ethyl)amino)pyrimidin-4-yl)pyridin-2-yl)isoxazol-5-yl)pyrrolidin-2-one]: 50 to 500 nM; `Cc1nnc(C(C)Nc2nccc(-c3cccc(-c4cc([C@]5(O)CCN(C)C5=O)on4)n3)n2)o1` (stereo partly drawn) [Example 385, (3R)-3-Hydroxy-1-methyl-3-(3-(6-(2-((1-(5-methyl-1,3,4-oxadiazol-2-yl)ethyl)amino)pyrimidin-4-yl)pyridin-2-yl)isoxazol-5-yl)pyrrolidin-2-one]: 50 to 500 nM. Next, `CN1CC[C@@](O)(c2cc(-c3cccc(-c4ccnc(N[C@H](CO)c5ccccc5)n4)n3)no2)C1=O` [Example 386, (R)-3-Hydroxy-3-(3-(6-(2-(((S)-2-hydroxy-1-phenylethyl)amino)pyrimidin-4-yl)pyridin-2-yl)isoxazol-5-yl)-1-methylpyrrolidin-2-one]: 50 to 500 nM; `CN1CC[C@@](O)(c2cc(-c3cccc(-c4ccnc(N[C@@H](CO)c5ccccn5)n4)n3)no2)C1=O` [Example 387, (R)-3-Hydroxy-3-(3-(6-(2-(((R)-2-hydroxy-1-(pyridin-2-yl)ethyl)amino)pyrimidin-4-yl)pyridin-2-yl)isoxazol-5-yl)-1-methylpyrrolidin-2-one]: > 500 nM.

Take `CN1CC[C@@](O)(c2cc(-c3cccc(-c4ccnc(N[C@H](CO)c5ccccn5)n4)n3)no2)C1=O` [Example 388, (R)-3-Hydroxy-3-(3-(6-(2-(((S)-2-hydroxy-1-(pyridin-2-yl)ethyl)amino)pyrimidin-4-yl)pyridin-2-yl)isoxazol-5-yl)-1-methylpyrrolidin-2-one]: the IC50 is 50 to 500 nM. Take `CCC(Nc1nccc(-c2cccc(-c3cc([C@]4(O)CCN(C)C4=O)on3)n2)n1)c1ccn(C)n1` (stereo partly drawn) [Example 389, (3R)-3-Hydroxy-1-methyl-3-(3-(6-(2-((1-(1-methyl-1H-pyrazol-3-yl)propyl)amino)pyrimidin-4-yl)pyridin-2-yl)isoxazol-5-yl)pyrrolidin-2-one]: the IC50 fell in the range of 50 to 500 nM. Turning to `CN1CC[C@@](O)(c2cc(-c3cccc(-c4ccnc(NC(c5ccccn5)C5CC5)n4)n3)no2)C1=O` (stereo partly drawn) [Example 390, (3R)-3-(3-(6-(2-((Cyclopropyl(pyridin-2-yl)methyl)amino)pyrimidin-4-yl)pyridin-2-yl)isoxazol-5-yl)-3-hydroxy-1-methylpyrrolidin-2-one], the IC50 is > 500 nM. `CCC(Nc1nccc(-c2cccc(-c3cc([C@]4(O)CCN(C)C4=O)on3)n2)n1)c1ccn(CC)n1` (stereo partly drawn) [Example 391, (3R)-3-(3-(6-(2-((1-(1-Ethyl-1H-pyrazol-3-yl)propyl)amino)pyrimidin-4-yl)pyridin-2-yl)isoxazol-5-yl)-3-hydroxy-1-methylpyrrolidin-2-one]: the IC50 is > 500 nM. Turning to `COc1cn(C)nc1C(C)Nc1nccc(-c2cccc(-c3cc([C@]4(O)CCN(C)C4=O)on3)n2)n1` (stereo partly drawn) [Example 392, (3R)-3-Hydroxy-3-(3-(6-(2-((1-(4-methoxy-1-methyl-1H-pyrazol-3-yl)ethyl)amino)pyrimidin-4-yl)pyridin-2-yl)isoxazol-5-yl)-1-methylpyrrolidin-2-one], the IC50 is > 500 nM. For `C[C@@H](Nc1nccc(-c2cccc(-c3cc([C@]4(O)CCN(C)C4=O)on3)n2)n1)c1cn2ccccc2n1` [Example 393, (R)-3-Hydroxy-3-(3-(6-(2-(((R)-1-(imidazo[1,2-a]pyridin-2-yl)ethyl)amino)pyrimidin-4-yl)pyridin-2-yl)isoxazol-5-yl)-1-methylpyrrolidin-2-one] the value was 50 to 500 nM.

Source of the values: patent US20250282768A1 (Janssen Pharmaceutica NV, priority 2022, published 2025).
